{"source": "patent US8404681B2", "about": "“Xanthones, thioxanthones and acridinones as DNA-PK inhibitors” (Luitpold Pharmaceuticals, Inc., priority 2003, dated 2013)", "key": {"[1]": {"target": "T1, DNA-PK (Homo sapiens, UniProt P78527)", "T1 construct": "HeLa S3 cells (ATCC CCL-2.2; Batch F12594) were raised in MEM-Joklik media; endogenous in cells; host or cells: HeLa S3 cells (ATCC CCL-2.2); Endogenous enzyme purified in house: S100-2 fraction, then Q-Sepharose FF, then SP-Sepharose FF, giving fraction IV", "experiment": "Standard DNA-PK assay (phosphorylation of p53 peptide substrate)", "format": "biochemical", "details": "purified human DNA-PK, 50 μM ATP, room temperature, read-out: IC50 (inhibition of DNA-PK enzyme activity)", "method": "Reactions were carried out at room temperature. Reactions were started by addition of ATP and stopped by application to phosphocellulose paper. Reaction products spotted onto phosphocellulose paper were washed five times with a total volume of at least 250 mL 10% acetic acid or 150 mM phosphoric acid. The paper was air dried and radioactivity was determined in a Beckman LS6000IC scintillation counter."}, "[2]": {"tested_on": "MDA-MB231 (human breast carcinoma) cells", "experiment": "DNA double-strand break repair assay (pulse field gel electrophoresis after irradiation)", "format": "cell-based", "details": "25 Gy, at concentrations which enhanced radiation induced cell killing", "method": "To further determine the cellular effect of DNA-PK inhibitors, an assay to measure chromosomal discontinuities was employed. Ionizing radiation induces chromosomal DNA double-strand breaks. Following high dose radiation, chromosomes can be extracted from cells and fractionated by pulse field electrophoresis to distinguish chromosomal fragments from intact larger chromosomes. Using this technique, the activity of DNA-PK inhibitors was measured.\nMDA-MB231 (human breast carcinoma) cells were seeded onto T25 flasks with RPMI1640+10% FBS, 2 mM L-glutamine, penicillin G 100 U/ml-streptomycin sulfate 10 μg/ml, 1 mM Na pyruvate. When confluent, media was removed and replaced with media containing DNA-PK inhibitor or vehicle. Cells were incubated at 37° C. for 1 hr in a humidified chamber with 5% CO2. Media then was removed and flasks were filled with ice-cold D-PBS and either: (a) processed immediately; (b) irradiated (25 Gy in a ^137Cs Mark I irradiator at a flux of 335 rad/min) and processed immediately; (c) irradiated and incubated for 2 hr in complete RPMI1640+vehicle at 37° C. (in humidified 5% CO2 atmosphere to allow for DNA repair), or (d) irradiated and incubated for 2 hr in complete RPMI1640+DNA-PK inhibitor compound. […] Chromosomal DNA was visualized with SYBR-Gold (Molecular probes #S-11494) and the fluorescent image quantified on the STORM 860 (Molecular Dynamics)."}, "[3]": {"tested_on": "human colorectal carcinoma cell line, HCT-116", "experiment": "Radiation enhancement cellular proliferation assay (3H thymidine incorporation)", "format": "cell-based", "details": "HCT-116 cells, γ-radiation at doses up to 800 rads", "method": "To measure the ability of present DNA-PK inhibitor compounds to enhance the toxic effect of radiation treatment, the human colorectal carcinoma cell line, HCT-116, was incubated with inhibitor compounds at concentrations up to 50 μM and treated with γ-radiation at doses up to 800 rads. Cells were maintained in RPMI 1640 (Gibco) containing 10% […], 1 mM sodium pyruvate, 2 mM L-glutamine, 100 U/mL penicillin, and 100 μg/mL streptomycin at 37° C. with 5% CO2 in a humidified incubator. Cultured cells were trypsinized, counted, and seeded into 96 well plates at a concentration of 1000 cells/well. Cells were incubated with varying concentrations of the inhibitor compounds from 1.8 μM to 50 μM for 10 hr or 5 days, then the media-containing compounds were removed and replaced With fresh media without drug. After five days, ^3H thymidine (1 μCi/well) was added to each well and incubated for an additional 20 hr. The plates were frozen at −70° C. for at least 2 hr and thawed at 37° C. to lyse the cells. DNA was harvested onto glass fiber filters and ^3H thymidine incorporation determined with a Packard Matrix 96 direct beta counter. Compound dependent potentiation of radiation induced cell killing was determined by comparing the effect of radiation alone and radiation plus inhibitor compound."}}}
{"smiles": "O=c1c2ccccc2n(Cc2ccccc2)c2cc(N3CCOCC3)cc(O)c12", "note": "[Example 28, 10-Benzyl-1-hydroxy-3-morpholin-4-yl-10H-acridin-9-one]", "values": [{"measurement": "IC50", "setting": "[1]", "value": 20, "unit": "nM"}, {"measurement": "DNA double-strand break repair", "setting": "[2]", "value": "inhibited DNA double-strand break repair"}, {"measurement": "concentration that enhanced radiation induced cell killing 2-fold", "setting": "[3]", "value": 17.5, "unit": "µM"}]}
